Laboratory results from PubChem BioAssay AID2753 (Vanderbilt High Throughput Screening Facility, 2010).
Active and inactive are the calls of the source. How the calls were made is not given here.

Target: ATP-sensitive inward rectifier potassium channel 1 (Homo sapiens) (UniProt P48048)
Test: ROMK channel inhibitor potency, dose response, cell-based, thallium flux, HEK293 (AID 2753)
Settings: fluorescence

ATP-sensitive inward rectifier potassium channel 1 (Homo sapiens), sequence (P48048 whole entry, looked up): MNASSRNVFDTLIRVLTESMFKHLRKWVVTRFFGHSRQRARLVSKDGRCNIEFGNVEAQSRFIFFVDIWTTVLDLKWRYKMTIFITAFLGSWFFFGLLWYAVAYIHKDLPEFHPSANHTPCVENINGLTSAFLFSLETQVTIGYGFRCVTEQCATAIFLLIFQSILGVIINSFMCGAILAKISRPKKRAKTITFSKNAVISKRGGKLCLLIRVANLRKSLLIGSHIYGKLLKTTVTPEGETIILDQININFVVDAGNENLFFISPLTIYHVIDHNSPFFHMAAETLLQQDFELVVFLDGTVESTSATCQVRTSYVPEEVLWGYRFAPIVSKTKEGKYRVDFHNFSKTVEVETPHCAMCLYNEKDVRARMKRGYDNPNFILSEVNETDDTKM

Row | SMILES | IC50
1 | Cc1ccc(C(C)C)c(OCC(=O)NN=C(CCl)CCl)c1 | inactive
2 | CCOC(=O)c1c(NC(=O)C[n+]2ccc(Cc3ccccc3)cc2)sc(C)c1C | inactive
3 | COC(=O)/C=C1\SC(=NC(=O)c2cccc(Cl)c2)NC1=O | inactive
4 | COC(=O)C1=C(C)N(C)C(C)=C(C(=O)OC)C1c1ccccc1C | 39.9 µM
5 | COc1ccc2c(c1OC)C(=O)OC2Nc1nc(-c2cc3ccccc3oc2=O)cs1 (stereo not given) | inactive
6 | COCCNC(=O)/C(C#N)=C/c1c(F)cccc1Cl | 9.2 µM
7 | Cc1cc(Cl)c(S(=O)(=O)Nc2ccc3c(c2)OCCO3)cc1OCC(=O)NC1CCCCC1 | 3.55 µM
8 | CCCNC(=O)c1nnsc1S(=O)(=O)c1ccc(Cl)cc1 | 9.69 µM
9 | CCOCCCNC(=O)/C(C#N)=C/c1ccccc1F | inactive
10 | Cc1cnc2ncc3sccc3c2c1 | 13.5 µM
11 | Cc1cc(N2CCOCC2)ccc1/C=C\[N+](=O)[O-] | 3.4 µM
12 | Cc1ccc2[nH]cc(C(=O)CCl)c2c1 | 4.14 µM
13 | COC(=O)C(=Cc1ccccc1[N+](=O)[O-])C(=O)OC | 8.19 µM
14 | Cc1ccc(/C=C(\C#N)C(=O)NCCN2CCOCC2)cc1 | inactive
15 | CCCN1C(=O)/C(=C/c2ccncc2)SC1=S | 7.7 µM
16 | Cc1cc(C)n2nc(/C(C#N)=C/c3ccccn3)c(C#N)c2n1 | 88.3 µM
17 | N#Cc1nc(-c2cccs2)oc1NCc1ccccc1 | 7.04 µM
18 | COCc1cc(C)nc(SCC[N+](C)(C)CC(=O)Nc2cccc(C(F)(F)F)c2)c1C#N | 9.27 µM
19 | Cc1ccc(C2=NOC(=O)/C2=C\c2ccc(C)o2)cc1 | 5.22 µM
20 | COc1cc(/C=C2\C(=N)N3N=CSC3=NC2=O)cc(Br)c1OC(=O)c1ccco1 | 4.53 µM
21 | COc1cccc(C(c2nnnn2Cc2ccccc2)N2CCN(C3CCCC3)CC2)c1OC (stereo not given) | 35.6 µM

Row | SMILES | IC50
22 | Cc1cc2c(cc1S(=O)(=O)N(C)c1ccccc1)NC(=O)CO2 | 0.909 µM
23 | O=C(c1nnsc1S(=O)c1ccc(Cl)cc1)N1CCOCC1 (stereo not given) | 2.2 µM
24 | COc1cc(/C=C(\C#N)C(=O)Nc2ccccc2C(=O)O)cc(Cl)c1OC | 3.3 µM
25 | N#Cc1cccc(N=c2ssnc2Cl)c1 | 8.39 µM
26 | N#C/C(=C/c1cc(Br)cs1)C(=O)NCC1CCCO1 (stereo not given) | inactive
27 | Cc1c(Nc2cc(Cl)c3nonc3c2[N+](=O)[O-])c(=O)n(-c2ccccc2)n1C | 52.8 µM
28 | Cc1ccc2nc(NC(=O)C(NS(=O)(=O)c3cccc4nsnc34)C(C)C)sc2c1 (stereo not given) | inactive
29 | Cc1ccc(C)n1-c1ccc(-n2cnnn2)cc1 | 10.4 µM
30 | CCOC(=O)CS(=O)(=O)c1nc(-c2ccccc2)cc(C(F)(F)F)n1 | 12.4 µM
31 | CCOC(=O)N1CCN(S(=O)(=O)c2ccc3c(c2)SCC(=O)N3)CC1 | inactive
32 | CC1CCN(C(=O)CSCC(=O)Nc2nc(-c3cccs3)cs2)CC1 | inactive
33 | CCOC(=O)c1c(C)n(C)c2ccc(OC)c(NC(=O)CN3CCCCC3)c12 | 7.88 µM
34 | CC(C)(C)c1ccc(N2C(=N)SCC2=O)cc1 | 3.24 µM
35 | COc1cc2c(cc1OC)C(/C=C/c1ccco1)=NCC2 | 4.07 µM
36 | Cn1c(/C(C#N)=C/c2cccc(O)c2)nc2ccccc21 | inactive
37 | O=C(NC1CCCCCC1)c1cc(S(=O)(=O)N2CCCCC2)ccc1N1CCOCC1 | 5.44 µM
38 | CCCCNC(=O)/C(C#N)=C/c1ccc(F)cc1F | 3.93 µM
39 | c1csc(CNc2ncnc3sccc23)c1 | inactive
40 | CN(C)c1nc(C=C(C#N)C#N)c(Cl)n1-c1ccc(F)cc1 | 2.98 µM
41 | C[n+]1c2n(c3ccccc31)N=C(c1cc(C(C)(C)C)c(O)c(C(C)(C)C)c1)CS2 | 73.3 µM
42 | O=C(CCl)N(c1ccccc1)c1ccccc1 | inactive

Next, values leading:

Row | IC50 | SMILES
43 | 6.43 µM | COc1ccccc1-n1c(SCC(=O)N2CCc3ccccc32)nc2c(c1=O)SCC2
44 | 31 µM | COc1cc(/C=C(\C#N)C(N)=O)ccc1OS(=O)(=O)c1ccc(C)cc1
45 | inactive | COc1cc(/C=C(/C(=O)c2cccs2)c2nc3ccccc3[nH]2)ccc1O
46 | 8.66 µM | Cc1ccc(-n2c3nc(=O)[nH]c(=O)c-3cc3cc([N+](=O)[O-])ccc32)cc1
47 | inactive | CCc1cccc(NC(=O)CSC2=NS(=O)(=O)c3ccccc32)c1
48 | inactive | N#C/C(=C\c1cccc([N+](=O)[O-])c1)c1nnc2n1CCCCC2
49 | 3.41 µM | O=C(Nc1ccc2oc(=O)ccc2c1)c1cc([N+](=O)[O-])ccc1N1CCOCC1
50 | inactive | O=C(/C=C/c1cn(CC(O)CN2CCCCC2)c2ccccc12)c1ccccc1 (stereo not given)
51 | inactive | CN(C)CCNC(=O)/C(=C/c1ccc(-c2ccc(Cl)cc2)o1)NC(=O)c1ccccc1
52 | inactive | CN(CCCC(=O)Nc1ccncc1)S(=O)(=O)c1ccc(Cl)cc1
53 | 9.65 µM | O=C(CCl)N(Cc1cccc([N+](=O)[O-])c1)c1cccc(Cl)c1
54 | inactive | O=C1c2[nH]nc(-c3ccccc3O)c2C(c2cccc(Cl)c2)N1CC1CCCO1 (stereo not given)
55 | inactive | CS(=O)(=O)N1CCc2cc(-c3csc(NC(=O)Cc4cccs4)n3)ccc21
56 | 5.52 µM | O=C(Cn1nc(CNc2ccc(Cl)cc2)[n+]2c1CCCCC2)c1ccc(Cl)cc1
57 | inactive | O=C1CC(N2CCN(Cc3ccc4c(c3)OCO4)CC2)C(=O)N1c1cccc2ccccc12 (stereo not given)
58 | 0.32 µM | O=C(c1ccc([N+](=O)[O-])cc1)N(Cc1ccc(Br)cc1)N1C(=O)CCCC1=O
59 | inactive | Cc1ccccc1-n1sc2cc(F)ccc2c1=O
60 | 13 µM | O=C1C=CC(=O)C(C2=C3C(=O)N(CCc4ccccc4)CC(=O)N3CCC2)=C1
61 | 120 µM | CC(/C=C1\SC(=S)N(CCCC(=O)Nc2ccc(C(=O)O)cc2)C1=O)=C\c1ccccc1

Row | IC50 | SMILES
62 | 5.83 µM | CC(C)C(c1nnnn1Cc1ccccc1)N1CCN(Cc2ccc3c(c2)OCO3)CC1 (stereo not given)
63 | inactive | N#C/C(=C\c1cccc([N+](=O)[O-])c1)C(=O)NCC1CCCO1 (stereo not given)
64 | inactive | CC(=O)c1c(C)nc(-c2cccc([N+](=O)[O-])c2)n1O
65 | 1.4 µM | CCOc1ccccc1N(CC(=O)N1CCOCC1)S(=O)(=O)c1ccc(SC)cc1
66 | 2.77 µM | O=C1C=C(c2ccccc2)C(=O)N1Nc1ccccc1
67 | 26.9 µM | CC(=O)c1ccc(N/N=C(/C(N)=O)C2=NC(C)(C)Cc3ccccc32)cc1
68 | inactive | CS(=O)(=O)n1nc(OC(=O)c2cc(Br)ccc2Cl)cc1N
69 | 12.8 µM | CCN(CC)S(=O)(=O)c1ccc(OC)c(NC(=O)CSc2cc(C)ccc2C)c1
70 | 14 µM | CCC(CC)C(=O)Nc1c2cnn(-c3ccccc3)c2nc(=O)n1-c1ccccc1
71 | 14.5 µM | N#C/C(=C\C1=C(N2CCOCC2)C(=C\c2ccccc2)/CC1)C(=O)Nc1ccccc1F
72 | inactive | CC1CN(c2ccc([N+](=O)[O-])c(NCCOc3ccccc3)c2)CCN1 (stereo not given)
73 | 4.29 µM | COc1ccc(NC(=O)/C(C#N)=C/c2ccc(Sc3nncn3C)c([N+](=O)[O-])c2)cc1
74 | 4.79 µM | O=C(/C=C\c1cccs1)c1c(O)ccc2ccc(=O)oc12
75 | 4.51 µM | N#Cc1ccc(/C=C/C(=O)c2cccnc2)cc1
76 | 2.1 µM | COc1cc(NC(=O)C2CCN(S(=O)(=O)c3ccc(Cl)cc3)CC2)ccc1-n1cnnn1
77 | inactive | O=c1c2ccccc2nc(/C=C/c2ccc([N+](=O)[O-])o2)n1CCCO
78 | 4.49 µM | O=C1CCCCCN1Sc1ccccc1
79 | 7.2 µM | Cc1cc(=O)oc2cc(NC(=S)NCc3ccccn3)ccc12
80 | 63 µM | COC(=O)Cn1cc(/C=C/[N+](=O)[O-])c2ccccc21
